Data on 5 compounds can be found in patent US9422239B1, “Dual PPAR-δ PPAR-γ agonists” (Auburn University, priority 2013, dated 2016).

For one data set, the target named is T1, PPARγ (AP2-PPRE) (Homo sapiens, UniProt P37231).
T1 construct: expressed in transfected cells; host or cells: HEK-293
T1 sequence (P37231 1-505): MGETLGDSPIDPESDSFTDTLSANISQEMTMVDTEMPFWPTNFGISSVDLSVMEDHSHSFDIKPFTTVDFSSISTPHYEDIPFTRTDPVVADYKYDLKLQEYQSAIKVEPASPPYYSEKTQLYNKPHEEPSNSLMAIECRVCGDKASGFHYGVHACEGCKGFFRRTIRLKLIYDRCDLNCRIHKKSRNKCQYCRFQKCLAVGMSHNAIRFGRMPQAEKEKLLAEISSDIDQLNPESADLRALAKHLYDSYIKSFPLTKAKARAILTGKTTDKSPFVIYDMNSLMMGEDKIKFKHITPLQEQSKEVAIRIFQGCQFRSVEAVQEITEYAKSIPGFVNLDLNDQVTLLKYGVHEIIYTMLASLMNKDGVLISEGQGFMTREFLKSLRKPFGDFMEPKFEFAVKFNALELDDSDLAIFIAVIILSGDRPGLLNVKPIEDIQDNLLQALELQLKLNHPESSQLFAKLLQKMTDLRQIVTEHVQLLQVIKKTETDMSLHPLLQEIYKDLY
T1 sequence (P19793 1-462 partner): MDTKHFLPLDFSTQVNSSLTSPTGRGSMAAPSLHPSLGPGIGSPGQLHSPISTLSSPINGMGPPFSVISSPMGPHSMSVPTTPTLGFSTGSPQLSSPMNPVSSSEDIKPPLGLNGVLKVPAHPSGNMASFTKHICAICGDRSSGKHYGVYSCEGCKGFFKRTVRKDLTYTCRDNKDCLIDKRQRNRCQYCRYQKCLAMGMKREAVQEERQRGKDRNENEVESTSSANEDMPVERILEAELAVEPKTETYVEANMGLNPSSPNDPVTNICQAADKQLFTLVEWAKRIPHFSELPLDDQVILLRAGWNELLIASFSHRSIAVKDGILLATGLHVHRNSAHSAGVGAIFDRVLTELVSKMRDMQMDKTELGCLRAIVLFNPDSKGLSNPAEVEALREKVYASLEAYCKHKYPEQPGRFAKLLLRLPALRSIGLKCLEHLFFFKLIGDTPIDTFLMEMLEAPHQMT
Nature of the data set: AP2-PPRE luciferase assay in HEK-293 cells. The conditions noted are these: luciferase assay, HEK-293 cells, 10 μM. The class given is cell-based. From the text:
(§1) To validate the specificity of the novel compounds towards activation of PPARγ/δ targets, we tested the compounds capacity to bind to select PPARγ/δ Peroxisome Proliferator Response Elements (PPRE). The PPRE are unique sites located in the promoter region where PPARs bind and transcriptionally activate the target genes. AP2-PPRE is the PPARγ target involved in adipocyte growth and differentiation. PDK4-PPRE is a PPARδ target involved in regulating energy metabolism in the cell. These PPREs were inserted into a PGL3 luciferase vectors containing CMV promoters (ADDGENE) using PCR. These vectors were co-transfected with RXR, PPARγ/PPARδ and p-galactosidase vectors into HEK-293 cells using Lipofectamine 2000 (Invitrogen). Relative light units (RLU) were measured using a Glomax Luminometer (Promega). Data were standardized to p-galactosidase activity using ONPG (Promega).

A further data set addresses T2, PPARδ (PDK4-PPRE) (Homo sapiens, UniProt Q03181).
T2 construct: expressed in transfected cells; host or cells: HEK-293
T2 sequence (Q03181 1-441): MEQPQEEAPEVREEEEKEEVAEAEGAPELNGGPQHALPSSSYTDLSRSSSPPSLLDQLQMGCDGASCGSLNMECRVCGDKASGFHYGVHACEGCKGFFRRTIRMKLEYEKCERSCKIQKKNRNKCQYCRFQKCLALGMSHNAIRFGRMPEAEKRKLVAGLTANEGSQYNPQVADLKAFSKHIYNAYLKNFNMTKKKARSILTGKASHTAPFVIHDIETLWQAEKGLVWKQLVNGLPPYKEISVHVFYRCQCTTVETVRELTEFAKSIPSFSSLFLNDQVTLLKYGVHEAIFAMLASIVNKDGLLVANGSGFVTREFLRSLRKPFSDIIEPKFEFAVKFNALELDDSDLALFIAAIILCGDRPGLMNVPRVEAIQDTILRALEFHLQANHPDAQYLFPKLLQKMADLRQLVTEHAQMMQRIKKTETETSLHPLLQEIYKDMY
T2 sequence (P19793 1-462 partner): T1 sequence (P19793 1-462 partner)
Nature of the data set: PDK4-PPRE luciferase assay in HEK-293 cells. The class given is cell-based.
From the text: as §1

For the next data set, the system named is 3T3-L1 adipocytes. Nature of the data set: Lipid accumulation by oil red-o staining. The class given is cell-based. As to conditions: 6 days, oil red-o stain. How it is done: 3T3L1 adipocytes were cultured and treated with the novel compounds for a period of 6 days. Lipid accumulation was determined by oil red-o staining, and measured the absorbance spectrophotometrically at a wavelength of 510 nm and standardized to total protein concentrations. Data from lipid accumulation studies were compared to cells treated with rosiglitazone (a full PPARγ agonist).

Data set [1] relates to C2C12 skeletal muscle cells. In words: Mitochondrial biogenesis markers by quantitative RT-PCR. The class given is cell-based. As to conditions: 4 days. How it is done:
Therefore, to test the effects of the novel compounds on mitochondrial biogenesis, C2C12 skeletal muscle cells were cultured and treated with the novel compounds for 4 days. Changes associated with markers for mitochondrial biogenesis were determined by quantitative real time PCR.

Data set [2] is described as follows: Heart size (heart weight to body weight ratio). The class given is in vivo. As to conditions: 10 mg/kg oral daily for 1 month, wild type and db/db mice. How it is done:
Diabetic db/db mice were fed a normal rodent chow diet. […] Mice were then weighed and their hearts were extracted and weighed. The heart weight of the mice compared to the body weight of the mice was then calculated based upon heart weight to body weight ratio.

For a further data set, the system named is db/db mice. Nature of the data set: Hippocampal slice electrophysiology (LTP, PTP). The class given is in vivo.
The conditions of data set [3]: in vivo; cited from earlier work.
A short description of data set [4]: Biodistribution by LC-Mass Spectral analysis. The conditions noted are these: mice, 3 mg/kg (table); for concentration at 4 h: mouse, po, 3 mg/kg.

`CCOC(CNCc1ccc(C(F)(F)F)cc1)OCC` [Compound 3-121]: on PPARγ (AP2-PPRE), the “Binding affinity for the AP2-PPRE” value is on record as “less binding affinity”. For the same compound, at PPARδ (PDK4-PPRE), the “Binding affinity for the PDK4-PPRE” value is listed as “less binding affinity”. In addition, the Lipid accumulation result with 3T3-L1 adipocytes is given as “less lipid accumulation”; in the data set with 3T3-L1 adipocytes (listed as compound 3-121), “insignificant induction of adiposity”.
With `Cc1cc(SCc2sc(-c3ccc(C(F)(F)F)c(F)c3)nc2C)ccc1OCC(=O)O` [GW0742, reference compound], in data set [1], the “Gene expression of mitochondrial markers” value is reported as “increases”.
Turning to `CN(CCOc1ccc(CC2SC(=O)NC2=O)cc1)c1ccccn1` (stereo not shown) [Rosiglitazone, rosiglitazone, reference compound], in data set [2], the Heart size result is given as “increase in heart size”. The “Amelioration of LTP reduction” value in the data set with db/db mice (ICV) is above 50%. Further, the “Change in the slope of fEPSP after sixty minutes of induction of LTP” value with db/db mice (ICV) is on record as 148.33±2.5%. Moreover, in the data set on db/db mice (oral), the “fEPSP slope (LTP studies)” value is 126±5.3%. Further, in data set [3], the Half-life is 4 h. In data set [4] (Brain, oral, 4 hours), the Concentration result is on record as “Not Detected”. The concentration at 4 h came out at 13 ng/mL in data set [4] (adipose, Concentration); 5 ng/mL in data set [4] (adipose, Tissue Concentration); 2.24 ng/mL in data set [4] (adipose, Tissue Distribution); 247 ng/mL in data set [4] (blood, Concentration); 12.8 ng/mL in data set [4] (heart, Concentration); 2.12 ng/mL in data set [4] (heart, Tissue Concentration). Further, the concentration at 4 h in data set [4] (heart, Tissue Distribution) came out at 0.64 ng/mL; in data set [4] (liver, Concentration), 250 ng/mL; in data set [4] (liver, Tissue Concentration) it was 8.89 ng/mL; in data set [4] (liver, Tissue Distribution), 4.95 ng/mL.
In the case of `CC(C(=O)O)c1ccc(CNCc2ccc(Cl)c(Cl)c2)cc1` (stereo not shown) [Compound 4-23], in the data set with 3T3-L1 adipocytes, the Lipid accumulation result was “less lipid accumulation”.
On to `COc1ccc(CN(CCN2C(=O)c3ccccc3C2=O)S(=O)(=O)c2c(C)cc(C)cc2C)cc1` [Compound 3-91], for which the “Binding affinity for the AP2-PPRE” value on PPARγ (AP2-PPRE) was “strong binding affinity”. At PPARδ (PDK4-PPRE), the “Binding affinity for the PDK4-PPRE” value is recorded as “less binding affinity”. For the same compound, the Lipid accumulation entry in the data set with 3T3-L1 adipocytes is reported as “comparable to rosiglitazone”.
